Experimental data reported in patent publication US5264565A, “Nucleic acid encoding the D2 /Ml chimeric receptor” (Affymax Technologies, N.V., priority 1991, dated 1993).
One block for each compound: values may come before it.

Experiments:
D2 /ml receptor = assay: Competition binding assay with [3H]-spiperone, D2/ml chimeric receptor; design: species or system human; details: for Ki: D2/ml Receptor, 0.5 nM [3H]-spiperone, anti-log of mean log Ki, three experiments, Cheng-Prusoff
Procedure: (§1) Cells were detached from culture flasks with EDTA, pelleted at 1,000×g and resuspended in 1× binding buffer (100 mM Tris; 120 mM NaCl; 5 mM KCl; 1 mM MgCl2; 2 mM CaCl2; 1.1 mM ascorbic acid; pH 7.4) at ~1×10^6 cells/ml. Cells were homogenized with a Polytron (Brinkman) and the crude membrane fraction was pelleted at 17,000× g for 10 min. […] Triplicate binding reactions were done in IX binding buffer for 30 min. at 37°, then stopped by filtration through glass-fiber filters (Skatron) that were pre-soaked in 0.1% polyethyleneimine, followed by a 5 sec. wash with ice cold 0.1× binding buffer. […] Competing ligands were all from Research Biochemicals Inc.

D2(414) receptor [1] = target: T1, D2(414) receptor (Homo sapiens, UniProt P14416); details: dopamine 100 μM, CHO cells expressing D2(414) receptor (FIG. 3A)
D2 /ml chimeric receptor = details: dopamine 0.1-1000 μM, CHO cells expressing D2/ml receptor (FIG. 3B)
[2] = system: non-transfected CHO cells; assay: [Ca+2]i assay (Fura-2) in non-transfected CHO cells
D2(414) receptor [3] = target: T1, D2(414) receptor; assay: Competition binding assay with [3H]-spiperone, D2(414) receptor; design: expressed in transfected cells
Procedure: as §1

CHO cells = assay: Radioligand specific binding in non-transfected CHO cells; design: species or system Chinese hamster; details: preliminary studies
Procedure: Cells were detached from culture flasks with EDTA, pelleted at 1,000×g and resuspended in 1× binding buffer (100 mM Tris; 120 mM NaCl; 5 mM KCl; 1 mM MgCl2; 2 mM CaCl2; 1.1 mM ascorbic acid; pH 7.4) at ~1×10^6 cells/ml. Cells were homogenized with a Polytron (Brinkman) and the crude membrane fraction was pelleted at 17,000× g for 10 min. […] Triplicate binding reactions were done in IX binding buffer for 30 min. at 37°, then stopped by filtration through glass-fiber filters (Skatron) that were pre-soaked in 0.1% polyethyleneimine, followed by a 5 sec. wash with ice cold 0.1× binding buffer.

T1 sequence (P14416 1-414 isoform P14416-2): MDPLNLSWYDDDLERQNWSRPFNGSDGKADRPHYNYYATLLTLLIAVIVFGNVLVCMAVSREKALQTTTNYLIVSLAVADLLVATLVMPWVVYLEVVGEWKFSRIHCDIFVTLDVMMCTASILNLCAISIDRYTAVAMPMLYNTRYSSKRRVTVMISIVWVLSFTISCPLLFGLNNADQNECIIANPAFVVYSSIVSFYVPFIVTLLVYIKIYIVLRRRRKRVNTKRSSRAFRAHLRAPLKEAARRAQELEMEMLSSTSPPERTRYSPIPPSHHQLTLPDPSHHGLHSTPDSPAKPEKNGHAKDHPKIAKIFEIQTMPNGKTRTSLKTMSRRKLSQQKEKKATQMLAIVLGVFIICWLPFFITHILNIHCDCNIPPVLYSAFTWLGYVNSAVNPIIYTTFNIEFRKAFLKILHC

Compound: NCCc1ccc(O)c(O)c1 [Dopamine]
Ki (D2 /ml receptor): 2100 nM | [Ca+2]i (D2(414) receptor [1]): failed to alter | [Ca+2]i response (D2 /ml chimeric receptor): elevated in a dose dependent manner | [Ca+2]i ([2]; dopamine 1 mM): unaltered

Compound: CCCN(CCc1ccccc1)C1CCc2c(O)cccc2C1 (stereo not drawn) [N-0434]
Ki (D2 /ml receptor): 27 nM

Compound: Oc1cc2c(cc1O)C(c1ccccc1)CNCC2 (stereo not drawn) [SKF-38393]
Ki (D2 /ml receptor): 36000 nM

Compound: O=C(CCCN1CCC2(CC1)C(=O)NCN2c1ccccc1)c1ccc(F)cc1 [[^3 H]-spiperone]
Specific binding (CHO cells): no detectable specific binding

Compound: C[N+](C)(C)CCOC(N)=O [carbachol]
[Ca+2]i ([2]; carbachol 100 μM): unaltered

The next lines start with the values.

Ki (D2 /ml receptor): 45 nM
Compound: CCN1CCC[C@H]1CNC(=O)c1cc(S(N)(=O)=O)ccc1OC [(-) Sulpiride]

Ki (D2 /ml receptor): 3600 nM | Difference in Ki between D2(414) and D2/ml receptor (D2 /ml receptor; comparison of Ki at the two receptors, t-test): small | Ki (D2(414) receptor [3]): 2100 nM
Compound: CN1CCc2cc(Cl)c(O)cc2[C@@H](c2ccccc2)C1 [SCH-23390]
